According to US12221406B2, “Compounds as NLRP3 inflammasome inhibitors and compositions and uses thereof” (VIRGINIA COMMONWEALTH UNIVERSITY, priority 2019, dated 2025):

Molecular target: NLRP3 inflammasome (Mus musculus, UniProt Q8R4B8)
Assay: IL-1β release from J774A.1 cells upon LPS/ATP stimulation (ELISA)
Description: Next, test compounds were added for 30 min. ATP (5 mM) was added at the same time when compounds were added to induce NLRP3 inflammasome activation. After 30 min, the supernatants were collected and the level of IL-1β was measured with a mouse IL-1β ELISA kit following the manufacturer's instructions. Primary peritoneal macrophages were similarly treated as described with J774A.1 cell line followed by ELISA analysis for IL-β production.

Sequence of NLRP3 inflammasome (Q8R4B8 whole entry): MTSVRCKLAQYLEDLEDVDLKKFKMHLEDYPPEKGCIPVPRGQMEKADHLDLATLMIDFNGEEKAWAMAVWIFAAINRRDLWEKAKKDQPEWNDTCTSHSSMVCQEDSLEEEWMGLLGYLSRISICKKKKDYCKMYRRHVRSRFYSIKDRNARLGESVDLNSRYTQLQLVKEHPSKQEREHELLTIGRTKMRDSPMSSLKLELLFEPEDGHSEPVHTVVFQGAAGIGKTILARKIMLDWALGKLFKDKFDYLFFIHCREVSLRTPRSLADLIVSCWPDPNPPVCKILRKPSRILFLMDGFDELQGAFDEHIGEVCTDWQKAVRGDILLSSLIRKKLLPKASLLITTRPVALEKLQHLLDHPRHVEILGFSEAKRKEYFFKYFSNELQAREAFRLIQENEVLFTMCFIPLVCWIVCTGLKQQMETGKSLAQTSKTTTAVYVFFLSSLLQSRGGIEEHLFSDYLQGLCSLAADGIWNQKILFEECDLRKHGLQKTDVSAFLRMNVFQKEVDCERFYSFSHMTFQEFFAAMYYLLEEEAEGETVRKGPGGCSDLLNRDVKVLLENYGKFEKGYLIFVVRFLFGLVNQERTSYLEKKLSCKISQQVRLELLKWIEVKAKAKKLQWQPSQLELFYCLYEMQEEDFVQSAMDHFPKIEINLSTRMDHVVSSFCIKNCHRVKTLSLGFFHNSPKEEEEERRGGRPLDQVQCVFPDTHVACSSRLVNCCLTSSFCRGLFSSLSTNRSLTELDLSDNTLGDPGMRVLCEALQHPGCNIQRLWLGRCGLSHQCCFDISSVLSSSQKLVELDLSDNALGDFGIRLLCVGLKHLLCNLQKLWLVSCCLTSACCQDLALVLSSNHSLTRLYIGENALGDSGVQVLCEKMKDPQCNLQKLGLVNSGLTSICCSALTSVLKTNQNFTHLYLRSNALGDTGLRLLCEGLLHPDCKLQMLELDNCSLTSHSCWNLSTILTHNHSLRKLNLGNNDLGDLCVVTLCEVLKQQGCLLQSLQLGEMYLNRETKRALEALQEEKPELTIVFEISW

| IC50 | SMILES |
| --- | --- |
| 1000 to 10000 nM | C#CCNS(=O)(=O)c1ccc(CCN(Cc2cc(Cl)ccc2OCCC)C(=O)[C@@H]2CCCN2)cc1 [SZ-N3I-71] |
| 1000 to 10000 nM | C#CCNS(=O)(=O)c1ccc(CCN(Cc2cc(Cl)ccc2OCCC)C(=O)[C@H](N)Cc2ccccc2)cc1 [SZ-N3I-77] |
| < 1000 nM | C#CCCC1(CCOc2ccc(Cl)cc2CN(CCc2ccc(S(=O)(=O)NCC#C)cc2)C(=O)Cc2ccsc2)N=N1 [SZ-N3I-82] |
| 1000 to 10000 nM | C#CCNS(=O)(=O)c1ccc(CCN(Cc2cc(Cl)ccc2OCCC)C(=O)[C@H]2CCCN2)cc1 [SZ-N3I-72] |
| < 1000 nM | C#CCNS(=O)(=O)c1ccc(CCN(Cc2cc(Cl)ccc2C(F)(F)F)C(=O)Cc2ccsc2)cc1 [SZ-N3I-89] |
| 1000 to 10000 nM | C#CCNS(=O)(=O)c1ccc(CCN(Cc2cc(Cl)ccc2OCCN2CCOCC2)C(=O)Cc2ccsc2)cc1 [SZ-N3I-73] |
| < 1000 nM | CCCOc1ccc(Cl)cc1CN(CCc1ccc(S(=O)(=O)N2CCOCC2)cc1)C(=O)Cc1ccsc1 [SZ-N3I-80] |
| < 1000 nM | C#CCNS(=O)(=O)c1ccc(CCN(Cc2cc(Cl)ccc2OCCC)C(=O)[C@@H](N)c2ccsc2)cc1 [SZ-N3I-85] |
| 1000 to 10000 nM | C#CCNS(=O)(=O)c1ccc(CCN(Cc2cc(Cl)ccc2OCCC)C(=O)[C@H](N)c2ccsc2)cc1 [SZ-N3I-84] |
| < 1000 nM | C#CCNS(=O)(=O)c1ccc(CCN(Cc2cc(Cl)ccc2OCCC)C(=O)[C@@H](N)Cc2cccs2)cc1 [SZ-N3I-78] |
| 1000 to 10000 nM | C#CCNS(=O)(=O)c1ccc(CCN(Cc2cc(Cl)ccc2OCCC)C(C)C)cc1 [SZ-N3I-68] |
| 1000 to 10000 nM | CCCOc1ccc(Cl)cc1CN(CCc1ccc(S(=O)(=O)N2CCNCC2)cc1)C(=O)Cc1ccsc1 [SZ-N3I-69] |
| < 1000 nM | C#CCNS(=O)(=O)c1ccc(CCN(Cc2cc(Cl)ccc2[N+](=O)[O-])C(=O)[C@@H](N)Cc2cccs2)cc1 [SZ-N3I-87] |
| < 1000 nM | C#CCNS(=O)(=O)c1ccc(CCN(Cc2cc(Cl)ccc2OCCC)C(=O)[C@@H](N)Cc2ccsc2)cc1 [SZ-N3I-79] |
| 1000 to 10000 nM | C#CCNS(=O)(=O)c1ccc(CCN(Cc2cc(Cl)ccc2OCCO)C(=O)Cc2ccsc2)cc1 [SZ-N3I-74] |
| < 1000 nM | C#CCNS(=O)(=O)c1ccc(CCN(Cc2cc(Cl)ccc2[N+](=O)[O-])C(=O)Cc2ccsc2)cc1 [SZ-N3I-83] |
| < 1000 nM | C#CCNS(=O)(=O)c1ccc(CCN(Cc2cccc3c2OCO3)C(=O)Cc2ccsc2)cc1 [SZ-N3I-88] |
| 1000 to 10000 nM | C#CCNS(=O)(=O)c1ccc(CCN(CCCCC)Cc2cc(Cl)ccc2OCCC)cc1 [SZ-N3I-67] |
| 1000 to 10000 nM | O=C(NCCc1ccc(S(=O)(=O)NCc2ccccc2)cc1)c1cc(Cl)ccc1C(O)c1ccccc1 (stereo not drawn) [SZ-N3I-65] |
| 1000 to 10000 nM | C#CCNS(=O)(=O)c1ccc(CCN(Cc2cc(Cl)ccc2OCCC)C(=O)C(N)C(C)C)cc1 (stereo not drawn) [SZ-N3I-70] |
| < 1000 nM | C#CCNS(=O)(=O)c1ccc(CCN(Cc2cc(Cl)ccc2O)C(=O)Cc2ccsc2)cc1 [SZ-N3I-81] |
| 1000 to 10000 nM | O=C(NCCc1ccc(S(=O)(=O)N2CCCC2)cc1)c1cc(Cl)ccc1C(O)c1ccccc1 (stereo not drawn) [SZ-N3I-66] |
| 1000 to 10000 nM | C#CCNS(=O)(=O)c1ccc(CCN(Cc2cc(Cl)ccc2OCCC)C(=O)[C@H]2NCCS2)cc1 [SZ-N3I-75] |
| 1000 to 10000 nM | C#CCNS(=O)(=O)c1ccc(CCN(Cc2cc(Cl)ccc2N)C(=O)Cc2ccsc2)cc1 [SZ-N3I-86] |

Second part, the molecule before the results:

| SMILES | IC50 |
| --- | --- |
| COc1ccc(Cl)cc1C(=O)NCCc1ccc(S(=O)(=O)NCCOCCOCCCCCCCl)cc1 [SZ-N3I-62] | 1000 to 10000 nM |
| CCCCN(CCCC)S(=O)(=O)c1ccc(CCN(Cc2cc(Cl)ccc2OC)C(=O)Cc2ccccc2)cc1 [SZ-N3I-30] | 1000 to 10000 nM |
| CCCOc1ccc(Cl)cc1CN(CCc1ccc(C(=O)NC)cc1)C(=O)Cc1ccccc1 [SZ-N3I-36] | 1000 to 10000 nM |
| O=C(NCCc1ccc(S(=O)(=O)NCc2ccccc2)cc1)c1cc(Cl)ccc1C(=O)c1ccccc1 [SZ-N3I-63] | < 1000 nM |
| COc1ccc(CNS(=O)(=O)c2ccc(CCN(Cc3cc(Cl)ccc3OCC3CC3)C(=O)Cc3ccccc3)cc2)cc1 [SZ-N3I-25] | 1000 to 10000 nM |
| COc1ccc(CNS(=O)(=O)c2ccc(CCN(Cc3cc(Cl)ccc3OCc3ccccc3)C(=O)Cc3ccccc3)cc2)cc1 [SZ-N3I-28] | 1000 to 10000 nM |
| CCCN(CCc1ccc(S(=O)(=O)NC)cc1)Cc1cc(Cl)ccc1OC [SZ-N3I-20] | 1000 to 10000 nM |
| CCCOc1ccc(Cl)cc1CN(CCc1ccc(C(=O)OC)cc1)C(=O)Cc1ccccc1 [SZ-N3I-35] | < 1000 nM |
| C=CC(=O)N(CCc1ccc(S(=O)(=O)NCc2ccc(OC)cc2)cc1)Cc1cc(Cl)ccc1OC [SZ-N3I-26] | < 1000 nM |
| CCCCN(CCCC)C(=O)c1ccc(CCN(Cc2cc(Cl)ccc2OCCC)C(=O)Cc2ccccc2)cc1 [SZ-N3I-38] | < 1000 nM |
| CCC(=O)N(CCc1ccc(S(=O)(=O)NC)cc1)Cc1cc(Cl)ccc1OC [SZ-N3I-18] | 1000 to 10000 nM |
| CCCOc1ccc(Cl)cc1CN(CCc1ccc(C(=O)NCc2ccc(OC)cc2)cc1)C(=O)Cc1ccccc1 [SZ-N3I-39] | < 1000 nM |
| C=CCN(CCc1ccc(S(=O)(=O)NC)cc1)Cc1cc(Cl)ccc1OC [SZ-N3I-14] | 1000 to 10000 nM |
| CCCOc1ccc(Cl)cc1CN(CCc1ccc(C(=O)OC)cc1)C(=O)Cc1ccsc1 [SZ-N3I-60] | 1000 to 10000 nM |
| CCCOc1ccc(Cl)cc1CN(CCc1ccc(S(=O)(=O)NCc2ccc(OC)cc2)cc1)C(=O)Cc1ccccc1 [SZ-N3I-24] | < 1000 nM |
| CCCCN(CCCC)S(=O)(=O)c1ccc(CCN(Cc2cc(Cl)ccc2OCCC)C(=O)Cc2ccccc2)cc1 [SZ-N3I-31] | > 30000 nM |
| CNS(=O)(=O)c1cc(CCNC(=O)c2cc(Cl)ccc2OC)co1 [SZ-N3I-33] | 1000 to 10000 nM |
| C#CCNC(=O)c1ccc(CCN(Cc2cc(Cl)ccc2OCCC)C(=O)Cc2ccccc2)cc1 [SZ-N3I-37] | < 1000 nM |
| COc1ccc(CNS(=O)(=O)c2ccc(CCN(Cc3cc(Cl)ccc3OC)C(=O)Cc3ccccc3)cc2)cc1 [SZ-N3I-22] | < 1000 nM |
| CNS(=O)(=O)c1ccc(CCN(Cc2cc(Cl)ccc2OC)C(=O)Cc2ccccc2)cc1 [SZ-N3I-12] | < 1000 nM |
| C=CCOc1ccc(Cl)cc1CN(CCc1ccc(S(=O)(=O)NCc2ccc(OC)cc2)cc1)C(=O)Cc1ccccc1 [SZ-N3I-27] | < 1000 nM |
| CCOc1ccc(Cl)cc1CN(CCc1ccc(S(=O)(=O)NCc2ccc(OC)cc2)cc1)C(=O)Cc1ccccc1 [SZ-N3I-23] | 1000 to 10000 nM |
| O=C(NCCc1ccc(S(=O)(=O)N2CCCC2)cc1)c1cc(Cl)ccc1C(=O)c1ccccc1 [SZ-N3I-64] | 1000 to 10000 nM |
| C#CCNC(=O)c1ccc(CCN(Cc2cc(Cl)ccc2OCCC)C(=O)Cc2ccsc2)cc1 [SZ-N3I-61] | < 1000 nM |
| CCCCCCCOc1ccc(Cl)cc1CN(CCc1ccc(S(=O)(=O)NCc2ccc(OC)cc2)cc1)C(=O)Cc1ccccc1 [SZ-N3I-29] | > 30000 nM |
| C=CCN(CCc1ccc(S(=O)(=O)NC)cc1)C(=O)c1cc(Cl)ccc1C(=O)c1ccccc1 [SZ-N3I-32] | 1000 to 10000 nM |
| CCCCCC(=O)N(CCc1ccc(S(=O)(=O)NC)cc1)Cc1cc(Cl)ccc1OC [SZ-N3I-16] | 1000 to 10000 nM |
